Measurements: patent US8597904B2, “Pharmaceutical compositions for the treatment of conditions responsive to proteasome inhibition” (priority 2007, dated 2013)

Tests used:
[1] = molecular target: T1, proteasome activity in SK-N-SH neuroblastoma cells (Homo sapiens, UniProt P28074); assay: Proteasome-Glo cell-based luminescent assay
T1 construct: endogenous in cells; host or cells: SK-N-SH
T1 sequence (P28074 60-263): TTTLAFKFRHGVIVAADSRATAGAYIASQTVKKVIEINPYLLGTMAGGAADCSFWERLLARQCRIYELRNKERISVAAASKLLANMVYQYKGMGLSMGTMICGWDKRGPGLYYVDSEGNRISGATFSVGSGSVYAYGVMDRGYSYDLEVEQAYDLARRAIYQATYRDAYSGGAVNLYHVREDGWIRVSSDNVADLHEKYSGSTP
Protocol: Syringolin A was tested as a proteasome inhibitor in vivo in cultured mammalian cancer cells. Inhibition of proteasome activity in human SK-N-SH neuroblastoma cells was measured using the Proteasome-Glo™ cell-based luminescent assay (Promega) in solid white 96-well microtiter cell culture plates. Ten μl of syringolin A (at various concentrations) was added to each well containing SK-N-SH cells (plated at a concentration of 1.0×10^5 cells/ml in 90 μl well volumes 24 hours prior) and a negative control and media only control were included. Cells were incubated with 1-100 μM syringolin A for 2 hours or 24 hours, and then equilibrated to room temperature for 15 minutes before 100 μl of Proteasome-Glo reagent (containing bioluminescent substrate Suc-LLVY-aminoluciferin) was added to the cells. Luminescence (indicated as relative luminescence units [RLU]) was read after 15-30 minutes on a Dynex MLX Luminometer.
To trace the kinetics of proteasome inhibition in the presence of syringolin, the same experiment was performed, but in this case, 100 μl of Proteasome-Glo reagent was added to cells first, followed by the addition of syringolin A at various concentrations, and the proteasome activity was measured over time.
The cell culture-based proteasome inhibition assay was performed as previously described (Groll et al. 2008. Nature 452:755-758, which is incorporated herein by reference in its entirety). Briefly, wells of white-walled 96-well microtiter cell culture plates were seeded at a density of 1×10^4 cells/well (SK-N-SH) or 5×10^3 cells/well (SKOV3) in 90 μl. After 24 hours, 10 μl GlbA or SylA were added at increasing concentrations (0-100 μM) and incubated for 2 hours. […] Cell Death Differ 9:1017-1025; Meng, et al. 1999. PNAS 96:10403-10408, each of which is incorporated herein by reference in its entirety) were used as positive and negative controls, respectively. Microtiter plates were then equilibrated to room temperature for 15 min before adding 100 μl of proteasome Glo™ reagent (containing bioluminescent substrate Suc-LLVY-aminoluciferin) per well. Luminescence was measured on a Dynex MLX luminometer, according to the manufacturer's instructions (Promega).

yeast 20S proteasome = molecular target: T2, yeast 20S proteasome (Saccharomyces cerevisiae, UniProt P25043+P30656+P38624); assay: cocrystallization with 20S proteasome, X-ray crystallography; assay type: binding; conditions: crystal structure of complex
T2 construct: each was cocrystallized with the yeast 20S proteasome; host or cells: yeast
Protocol: To elucidate the binding mode of syringolin. A and glidobactin A to the proteasome, each was cocrystallized with the yeast 20S proteasome. Crystals of the 20S proteasome were grown in hanging drops at 24° C. as described (Grail et al. 1997. Nature 386:463-471; Groll and Huber. 2005. Methods Enzymol. 398:329-336, each which is incorporated herein by reference in its entirety) and incubated for 60 min with syringolin A or glidobactin A. The protein concentration used for crystallization was 40 mg/ml in Tris-HCI (10 mM, pH 7.5) and EDTA (1 mM). The drops contained 3 μL of protein and 2 μL of the reservoir solution (30 mM magnesium acetate, 100 mM morpholino-ethane-sulphonic acid (pH 7.2) and 10% MPD), X-ray diffraction data to 2.9 Å for the yeast 20S proteasome:syringolin A and to 2.7 Å for the 20S proteasome:glidobactin A-complex were collected using synchrotron radiation with λ=1.05 Å on the BW6-beamline at DESY/Hamburg/Germany and with λ=1.0 Å on the […] at SLS/Villingen/Switzerland, respectively. Crystals were soaked in cryoprotecting buffer (30% MPD, 20 mM magnesium acetate, 100 mM morpholino-ethane-sulfonic acid pH 6.9) and frozen in a stream of liquid nitrogen gas at 90 K (Oxford Cryo Systems). X-ray intensities were evaluated by using the DENZO program package (Otwinowski and Minor. 1997. Methods Enzymol 276:307-326) and data reduction was performed with CCP4 (Potterton et al. 2003. Acta Crystallogr. D Biol. Crystallogr. 59:1131-1137). The space group belongs to P21 with cell dimensions of about a=134 Å, b=302 Å, c=144 Å and β=112° (Table 1). The anisotropy of diffraction was corrected by an overall anisotropic temperature factor by comparing observed and calculated structure amplitudes using the program CNS (Brünger et al. 1998. Acta Crystallogr. D Biol. Crystallogr. 54: 905-921, which is incorporated herein by reference in its entirety). […]

Row | SMILES | IC50 ([1]; 2 hours, read-out: IC50 of proteasomal activity) [nM] | potency of GlbA relative to SylA ([1]; ratio of IC50) | binding mode at proteasome active sites (yeast 20S proteasome) | binding to the caspase-like active site (yeast 20S proteasome) | proteasome activity in cells ([1]; 2 hours incubation) | kinetics of proteasome inhibition in cells ([1]; reagent added first, activity measured over time)
1 | CCCCCCC/C=C/C=C/C(=O)N[C@H](C(=O)N[C@H]1C[C@@H](O)CCNC(=O)/C=C/[C@H](C)NC1=O)[C@@H](C)O [glidobactin A] | 55 | approximately 26 fold | same mechanism of inactivation | did not bind | – | –
2 | CC(C)[C@H](NC(=O)N[C@H](C(=O)N[C@H]1/C=C/CCNC(=O)/C=C/[C@H](C(C)C)NC1=O)C(C)C)C(=O)O [syringolin A] | – | – | covalently binds to the hydroxy group of the active site N-terminal threonine | – | dose-dependent decrease of proteasome activity | inhibited proteasome activity in a time and dose-dependent manner in the micromolar range
